From patent US11203598B2, “Compounds for repressing cancer cell growth” (Institute For Cancer Research, priority 2018, dated 2021)

Experiments:
Type in all cases: cell-based, human
SW480 cells [1] = test: CellTiter-Glo luminescent cell viability assay; conditions: 24 hours
[2] = test system: p53 pathway proteins in DLD-1 cells; test: Western blot of p53 targets and LC3B; conditions: for DR5 protein level: 8 and 24 hours
Description: (§1) After treatment, cells were harvested by trypsinization, washed with PBS, and lysed with RIPA buffer (Sigma-Aldrich) for 30 minutes to 1 hour at 4° C. Protein lysates were spun down and supernatant was collected. Protein quantification was performed using a Pierce™ BCA Protein Assay Kit (Thermo Fisher Scientific). 1×NuPAGE® LDS sample buffer (Thermo Fisher Scientific) and 2-Mercaptoethanol as the reducing agent (Sigma-Aldrich) were added to protein lysates, followed by boiling for 15 minutes at 95° C. Equal total protein amounts samples were loaded into NuPAGE™ Novex™ 4-12% Bis-Tris Protein Gels (1.5 mm, Thermo Fisher Scientific) and gel eletrophoresis was performed with NuPAGE™ MES SDS Running Buffer. Proteins were transferred onto an Immobilon-P membrane (PVDF, EMD Millipore) using a Bio-Rad system with a 10% Tris-Glycine and 10% methanol transfer buffer diluted in distilled and deionized water. After transfer, membranes were blocked with 10% milk in TBST solution and then incubated overnight with primary antibody, washed with TBST and incubated with secondary antibody for 1 hour. Incubations were performed in 5% milk in TBST solution. Signal was detected by using a chemiluminescent detection kit, followed by autoradiography. The following antibodies were used: p53 (DO-1, 1:1000, Santa Cruz), p73 (1:1000, Bethyl Laboratories), p21 and NOXA (1:250, EMD Millipore), DR5, FADD, cleaved caspase 3, cleaved caspase 8, cleaved PARP, and LC3B (1:1000, Cell Signaling), and β-actin (1:10000, Sigma).
(§2) Proteins were isolated using NP40 Lysis Buffer (20 mmol/L Tris-HCl (pH 7.4), 150 mmol/L NaCl, 5 mmol/L EDTA, 50 mmol/L NaF, 1 mmol/L glycerophosphate, 5 mmol/L Na4P2O7, 0.5% NP40, and complete protease inhibitor cocktail (Roche)) and electrophoresed through 4-12% SDS-PAGE followed by semi-dry transfer to PVDF membranes. The PVDF membranes were incubated with different antibodies including p21 (OP64-100UG, EMD Millipore (world wide web at emdmillipore.com/US/en/product/Antip21WAF1-(Ab-1)-Mouse-mAb-(EA10), EMD_BIO-OP64)), PUMA (12450S, Cell Signaling Technology, world wide web at cellsignal.com/products/primary-antibodies/puma-d30c10-rabbit-mab/12450), DR5 (3696S, Cell Signaling Technology, world wide web at cellsignal.com/products/primary-antibodies/dr5-antibody/3696?N=4294956287&Ntt=3696s&fromPage=plp& requestid=541668), p53(sc-126, Santa Cruz, world wide web at scbt.com/scbt/fr/product/p53-antibody-do-1), and RAN (610341, BD Transduction Laboratories, world wide web at bdbiosciences.com/us/reagents/research/antibodies-buffers/cell-biologyreagents/cell-biology-antibodies/purified-mouse-anti-ran-20ran/p/610341) in blocking buffer at 4° C. overnight. Bound antibody will be detected using IRDye secondary antibodies (LI-COR Biosciences,) in Odyssey blocking buffer for 1 hour then imaged using the ODYSSEY infrared imaging system.

[3] = test system: wild-type p53 and p53 targets in HCT116 cells; test: Western blot of p53 and p53 targets; conditions: for wild-type p53 protein level: 24 hours, increasing dose
Description: as §1, §2

SW480 cells [4] = test: CellTiter-Glo luminescent cell viability assay; conditions: for cell viability: dose dependent
Description: Cells were seeded in 96-well plates at a density of 5×10^3 cells per well. 20 μL of CellTiter-Glo® Reagent was added directly to the wells, following the manufacturer's protocol, and bioluminescence signal was determined using an IVIS imaging system.
Cell lines at a concentration of 4×10^3 cells/well were seeded out on an opaque 96-well plate and treated with CB002 and Analog 11 in ranging doses starting from 200 μmol/L with DMSO controls. At 72 hours after treatment, cells were mixed with 30 μL Cell Titer-Glo reagent and after ten minutes of room temperature incubation were imaged using IVIS imaging system (Xenogen).
To begin establishing the potential of CB002 as a candidate therapeutic agent, its therapeutic index was determined by treating cancer (DLD-1, SW480, and RXF393) and normal (WI38 and MRC5) cell lines with concentrations of CB002 ranging from 0-500 μM for a period of 72 hours and assessing cell viability by the CellTiter-Glo® luminescence assay (see, FIG. 2). CB002 has a significant therapeutic index among the cells tested.

[5] = test system: p53 reporter (PG13-luc) in SW480 cells; test: luciferase-based p53-reporter activity assay
Description: High-throughput screening was performed using a non-invasive bioluminescence imaging in human colorectal cancer cell lines that stably express a p53-regulated luciferase reporter. Cells were seeded in 96-well plates (Greiner Bio-One) at a density of 1×10^4 cells per well. p53 transcriptional activity was imaged using an IVIS imaging system for a period of 3-4 hours.
Cell-based screening of p53 transcriptional activity for small molecule CB002 was accomplished using noninvasive bioluminescence imaging in human colorectal cancer cell lines SW480, DLD-1, DLD-1 p73^−/−, HCT116, and HCT116 p53^−/−. These cell lines stably express a p53 reporter, PG13-luc. Cells were seeded in opaque 96-well culture at a density of 5×10^4 cells/well. The cells were treated with CB002 at ranging doses with DMSO controls. Bioluminescence in cells was imaged for p53 transcriptional activity at 2 hours and 24 hours using IVIS imaging system (Xenogen).
In order to identify small molecules that could restore the p53 signaling pathway, 50,000 small molecules from the Chembridge Library were screened using a firefly luciferase human p53 reporter assay system. SW480 colorectal cancer cells that stably express the human p53 reporter were treated with compounds at various concentrations from 0-100 μM for 2 and 24 hours. […] To further validate the effects of CB002, the screening was expanded by testing effects on p53-dependent reporter activity in DLD-1, wild-type HCT116, and p53-null colorectal cancer HCT116 cell lines. […] Referring to FIG. 1, representative images of luciferase-based p53-reporter activity assays are shown at 3 hours (Panel A). Quantification of the luciferase-based p53-reporter activity assays in three different cell lines incubated from 3-24 hours with CB002 are shown (Panels B-D). p53-reporter activity assays are shown at 2 hours for HCT116 p53-null cells (Panel E).

[6] = 8 hours, 25 μmol/L and 50 μmol/L
[7] = 24 hours, 12 μmol/L of CB002 and 25 μmol/L of Analog 11

| SMILES | combination index with Irinotecan (SW480 cells [1]; 0-100 μM Irinotecan with 0-200 μM Analog 11, CompuSyn) | DR5 protein level [2] | PUMA protein level [2, 6] | p21 protein level [2, 6] | PUMA protein level ([2]; 24 hours) | p21 protein level [2, 7] | PUMA expression ([3]; 8 and 24 hours) | p21 protein level ([3]; 8 and 24 hours) | wild-type p53 protein level [3] | cell viability (SW480 cells [4]; 72 hours) | p53 responsive bioluminescence ([5]; 0 to 20 μmol/L) | combination index with Ganetespib (SW480 cells [1]; 0-20 μM Ganetespib with 0-200 μM CB002, CompuSyn) | LC3B protein expression time course ([2]; 160 μM, 0-48 hours) | wild-type p53 expression ([3]; 50 and 100 μM) | combination index (CI), CB002 and CPT-11 (SW480 cells [4]; 72 hours) | combination index (CI), CB002 and 5-FU (SW480 cells [4]; 72 hours, CI<1 indicates synergism) | cell viability, combination with 5-FU (SW480 cells [4]; CB002 (22 μM and 66 μM) with 5-FU (60 μg/ml), 72 hours, versus single agents) | cell viability, combination with CPT-11 (SW480 cells [4]; CB002 (66 μM) and CPT-11 (a series of doses), 72 hours, versus single agents) | IC50 (SW480 cells [4]; Homo sapiens, SW480, 72 hours, GraphPad) [µM] | p53 luciferase reporter activity ([5]; 0-100 μM, 2 and 24 hours) |
| --- | --- | --- | --- | --- | --- | --- | --- | --- | --- | --- | --- | --- | --- | --- | --- | --- | --- | --- | --- | --- |
| Cn1c(=O)c2c(nc(Nc3ccccc3)n2C)n(C)c1=O [Analog 11, 8-anilino-1,3,7-trimethyl-3,7-dihydro-1Hpurine-2,6-dione] | synergizes with Irinotecan | no change of DR5 | an increase at the 25 μmol/L but not the 50 μmol/L | minor increase in p21 | an increase in PUMA | moderate increase in p21 | increase only at 24 hours | increase moderately in a dose dependent fashion | moderate increase in wild-type p53 | reduced cell viability | increased p53 responsive bioluminescence in a dose dependent manner | – | – | – | – | – | – | – | – | – |
| Cn1c(=O)c2[nH]c(Nc3ccccc3)nc2n(C)c1=O [CB002, 8-anilino-1,3-dimethyl-3,7-dihydro-1H-purine-2,6-dione] | – | slightly increased | minor increase in PUMA | minor increase in p21 | an increase in PUMA | moderate increase in p21 | – | increase moderately in a dose dependent fashion | moderate increase in wild-type p53 | reduced cell viability | – | synergizes with Ganetespib | initial increase of LC3B | unable to decrease the expression of wild-type p53 | synergism | < 1.0 | significantly reduced cell viability | significantly reduced cell viability | 96.5 | activating the luciferase reporter in a dose-dependent manner |
